Some test systems named below: A549 NSCLC; BT-549 breast; EKVX NSCLC; HL-60(TB) leukemia; HT29 colon; MDA-N; NCI-H226 lung; NCI-H23 lung; NCI/ADR-RES ovarian; OVCAR-4 ovarian; SF-268 CNS; SF-295 CNS; SNB-75 CNS; SR leukemia; T-47D breast; UACC-62 melanoma; A498 renal; CAKI-1 renal; MOLT-4 leukemia.
Common to all, as to assay: NCI anticancer screen, dose series, 48 h

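Five concentrations, 48 hours, 96-well plates. The concentration for full growth arrest is given as TGI.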

As for `Cc1[nH]c(=O)c2oc3cc4ccccc4cc3c2c1C(=O)O`, the TGI in the assay with A549 NSCLC, in the assay on BT-549 breast, in the assay on EKVX NSCLC, in the assay on HL-60(TB) leukemia, in the assay on HT29 colon and with MDA-N was > 10 µM in each case. The TGI with NCI-H226 lung, in the assay with NCI-H23 lung, in the assay with NCI/ADR-RES ovarian, with OVCAR-4 ovarian, with SF-268 CNS and in the assay with SF-295 CNS was > 10 µM throughout. For the same compound, the TGI in the assay with SNB-75 CNS, in the assay with SR leukemia, in the assay with T-47D breast and in the assay with UACC-62 melanoma was > 10 µM in each case.
As to `COC(=O)/C(=N\N)C(C(=O)C(=O)Nc1cc(Cl)ccc1Cl)c1nc2ccc([N+](=O)[O-])cc2[nH]c1=O` (configuration not stated), the TGI in the assay with A498 renal, with A549 NSCLC, in the assay on BT-549 breast, with CAKI-1 renal, with EKVX NSCLC and with HL-60(TB) leukemia was > 100 µM each time. Further, the TGI in the assay on HT29 colon, with MDA-N, with MOLT-4 leukemia, in the assay with NCI-H226 lung, in the assay on NCI-H23 lung and in the assay on NCI/ADR-RES ovarian was > 100 µM in each case. Besides, the TGI in the assay with OVCAR-4 ovarian, in the assay on SF-268 CNS, in the assay with SF-295 CNS, in the assay on SNB-75 CNS, with T-47D breast and in the assay on UACC-62 melanoma was > 100 µM throughout.
`Cc1cc2nnn(C3CCCCO3)c2cc1C` (configuration not stated): the TGI in the assay with A549 NSCLC, in the assay with BT-549 breast, in the assay with CAKI-1 renal, with EKVX NSCLC, in the assay on HT29 colon and with MDA-N was > 100 µM each time. Besides, the TGI in the assay on MOLT-4 leukemia, with NCI-H226 lung, with NCI-H23 lung, in the assay on NCI/ADR-RES ovarian, in the assay with OVCAR-4 ovarian and with SF-295 CNS was > 100 µM each time. Besides, the TGI with SNB-75 CNS, in the assay with SR leukemia, in the assay with T-47D breast and in the assay on UACC-62 melanoma was > 100 µM in each case.
Consider `COC(=O)c1sc(=S)sc1SCc1cccc(CSc2sc(=S)sc2C(=O)OC)c1`, for which the TGI with A498 renal is 62.2 µM; in the assay with BT-549 breast, 94.1 µM; in the assay on CAKI-1 renal, > 100 µM; in the assay on EKVX NSCLC it was > 100 µM; in the assay on HT29 colon, > 100 µM; with MDA-N, > 100 µM. Also, the TGI in the assay on MOLT-4 leukemia, with NCI-H23 lung, in the assay with NCI/ADR-RES ovarian, in the assay on OVCAR-4 ovarian, in the assay with SF-268 CNS and with SF-295 CNS was > 100 µM throughout. For the same compound, the TGI was 26.6 µM in the assay with SNB-75 CNS, > 100 µM with SR leukemia, > 100 µM in the assay on T-47D breast and > 100 µM with UACC-62 melanoma.
`Cc1cn([C@H]2C[C@@H](N3C(=O)c4ccccc4C3=O)[C@@H](CO[Si](C)(C)C(C)(C)C)O2)c(=O)[nH]c1=O`: the TGI was > 100 µM in the assay on A498 renal; > 100 µM with A549 NSCLC; > 100 µM in the assay on BT-549 breast; > 100 µM in the assay with CAKI-1 renal; > 100 µM with EKVX NSCLC; 51.7 µM in the assay on HT29 colon. The TGI with MDA-N, in the assay with MOLT-4 leukemia, with NCI-H226 lung, in the assay on NCI-H23 lung, in the assay with NCI/ADR-RES ovarian and in the assay on OVCAR-4 ovarian was > 100 µM each time. Further, the TGI in the assay with SF-268 CNS was > 100 µM; with SF-295 CNS, > 100 µM; in the assay on SNB-75 CNS, 60.8 µM; with SR leukemia, > 100 µM; in the assay on T-47D breast it was > 100 µM; with UACC-62 melanoma, 74.9 µM.
Take `COC(=O)C(=O)C(C(=O)C(=O)Nc1cccc(OC)c1)c1nc2ccc(Cl)cc2[nH]c1=O` (configuration not stated): the TGI in the assay with A498 renal, in the assay with A549 NSCLC, with BT-549 breast, in the assay with CAKI-1 renal, in the assay with EKVX NSCLC and with HL-60(TB) leukemia was > 100 µM each time. Besides, the TGI with HT29 colon, in the assay with MDA-N, with MOLT-4 leukemia, with NCI-H226 lung, in the assay with NCI-H23 lung and in the assay with NCI/ADR-RES ovarian was > 100 µM each time. The TGI in the assay with OVCAR-4 ovarian, in the assay on SF-268 CNS, in the assay with SF-295 CNS, with SNB-75 CNS, in the assay with T-47D breast and with UACC-62 melanoma was > 100 µM throughout.
Regarding `CCOc1ccc(NC(=O)C(=O)C(/C(=N/N)C(=O)OC)c2nc3ccc([N+](=O)[O-])cc3[nH]c2=O)cc1` (configuration not stated), the TGI in the assay on A498 renal, with A549 NSCLC, in the assay on BT-549 breast, in the assay on CAKI-1 renal, with EKVX NSCLC and with HT29 colon was > 100 µM throughout. Besides, the TGI in the assay with MDA-N, in the assay on MOLT-4 leukemia, with NCI-H226 lung, with NCI-H23 lung, with NCI/ADR-RES ovarian and in the assay with OVCAR-4 ovarian was > 100 µM each time. Moreover, the TGI with SF-268 CNS, with SF-295 CNS, in the assay on SNB-75 CNS, in the assay on SR leukemia, in the assay with T-47D breast and with UACC-62 melanoma was > 100 µM throughout.
On to `CCOC(=O)c1cn(-c2ccc([N+](=O)[O-])cc2)c(=S)n2c1nc1ccccc12`, for which the TGI was 87.7 µM in the assay on A498 renal; > 100 µM in the assay with A549 NSCLC; > 100 µM with BT-549 breast; > 100 µM in the assay on CAKI-1 renal; > 100 µM with EKVX NSCLC; > 100 µM in the assay with HT29 colon. Besides, the TGI is > 100 µM with MDA-N; 75.7 µM in the assay on MOLT-4 leukemia; > 100 µM in the assay with NCI-H226 lung; > 100 µM with NCI-H23 lung; > 100 µM in the assay on NCI/ADR-RES ovarian; > 100 µM with OVCAR-4 ovarian. Further, the TGI with SF-295 CNS, in the assay on SNB-75 CNS, in the assay on SR leukemia, with T-47D breast and in the assay with UACC-62 melanoma was > 100 µM throughout.
